The results in this text go back to US20090325960A1, “METHOD FOR TREATING INFLAMMATORY DISEASES USING RHO KINASE INHIBITOR COMPOUNDS” (priority 2008, published 2009).

Where two headings read alike, the source gives them in different places.

Data set [1] has as its system cytokine secretion from LPS-stimulated human monocytes. Briefly: Human monocyte cytokine secretion assay (LPS-stimulated). In kind it is cell-based.
Protocol: Peripheral blood from healthy human volunteers was collected and the monocytes isolated via Ficoll-paque density centrifugation. […] The cells were allowed to pre-incubate with test compound at the indicated concentration for 30 minutes (37° C., 5% CO2, humidified air); after which the supernatant was removed and media containing compound and 1 ng/mL LPS was added. Cells were allowed to incubate with compounds and LPS for 4 hours at 37° C. after which the supernatant was removed and stored at −80° C. Cytokine concentrations in the supernatant were determined using commercially available Bio-Rad Bio-Plex™ kits according the manufacturer's instructions.
A short description of data set [2]: Rat oral pharmacokinetics (plasma). To be noted: rat oral PK, mean of n = 3 rats; for AUC (0-last): time zero through last observable value. In kind it is in vivo.
Protocol: Plasma (EDTA K2 anticoagulant) was collected from male, cannulated, CD Sprague Dawley rats to determine the pharmacokinetics of formulations containing compound inhibitors of Rho kinase. Each animal was dosed orally with a 4 ml/kg solution or suspension of each test compound in 10 mM acetate buffered saline, pH 4.5 at a final concentration range of 20-30 mol/kg. Blood was collected at 0.25, 0.5, 1, 2, 4, 6, 8, and 24 hours. Plasma samples were assayed for the concentration of the test compound using an on-line, solid phase extraction LC/MS/MS analysis system.
Pharmacokinetic analyses were performed using WinNonlin software version 5.2 (Pharsight Corporation, Mountain View, Calif.).
As determined from the plasma concentration versus time curves, the time to peak and peak exposure are represented by the values Tmax and Cmax, respectively. The AUC values (nM*hr) shown were calculated as the areas under the plasma concentration versus time curves from time zero through the time of the last observable value and represent the total exposure of the compound over the course of the study. Half-life values or the amount of time required for the plasma levels of the compound to decline to half the initial value are represented as t1/2.
Data set [3] relates to A-10 rat thoracic aorta cells. Put plainly: PDGF-stimulated smooth muscle cell proliferation assay (BrdU incorporation). In kind it is cell-based. (Dividing cells build labelled thymidine or BrdU into new DNA.)
Protocol: Effects on cell proliferation were measured using a bromodeoxyuridine (BrdU) incorporation assay. […] Serum free media containing 0.1% BSA was added to the cells. 24 hours later the media was removed and replaced with warmed serum free media. […] Proliferation was then monitored using the BrdU Cell Proiferation Assay, HTS (Calbiochem cat. # HTS01). BrdU was allowed to incorporate into cells for 24 hours prior to the addition of fixative/denaturing solution and the fluorometric detection of incorporated BrdU using a BrdU antibody as per manufacturer's directions. Data are reported as a percent of the PDGF-stimulated BrdU incorporation.
Setting [4] is: read-out: IL-6 % (Percent inhibition values for inhibition of cytokine secretion), 10 μM of test compound, 1 ng/mL LPS, 4 hours.
Where [5] appears, read: 10 μM of test compound, 1 ng/mL LPS, 4 hours, read-out: IL-1β % (Percent inhibition values for inhibition of cytokine secretion).
Setting [6] is: 10 μM of test compound, 1 ng/mL LPS, 4 hours, read-out: TNF-α % (Percent inhibition values for inhibition of cytokine secretion).

`NC(=O)Cn1ccc2ccc(CN3CC[C@@H](Nc4cccc5cnccc45)C3)cc21` [Compound 2.058, (R)-2-(6-((3-(isoquinolin-5-ylamino)pyrrolidin-1-yl)methyl)-1H-indol-1-yl)acetamide]: the activity at 10 µM in data set [1] (setting [4]) turned out to be 1.3%.
Consider `Fc1ccc(CN2CCC[C@H](Nc3ccc4[nH]ncc4c3)C2)cc1F` [Compound 1.072, (S)-N-(1-(3,4-difluorobenzyl)piperidin-3-yl)-1H-indazol-5-amine], for which the activity at 10 µM was 98.2% in data set [1] (setting [5]), 83.8% in data set [1] (setting [6]) and 96.1% in data set [1] (setting [4]).
Taken in the same sequence, the figures for `O=C(COc1cccc(CN2CCC[C@@H](Nc3ccc4[nH]ncc4c3)C2)c1)N1CCOCC1` [Compound 1.127, (R)-2-(3-((3-(1H-indazol-5-ylamino)piperidin-1-yl)methyl)phenoxy)-l-morpholinoethanone] were 198%, 97.3% and 67.3%.
Turning to `C=Cc1ccc(CN2CCC[C@@H](Nc3ccc4[nH]ncc4c3)C2)cc1` [Compound 1.208, (R)-N-(1-(4-vinylbenzyl)piperidin-3-yl)-1H-indazol-5-amine], the activity at 10 µM in data set [1] (setting [5]) worked out at 62%; in data set [1] (setting [6]) it was 92%; in data set [1] (setting [4]) it was 109%.
Taken in the same sequence, the figures for `c1ccc(CN2CCC[C@H](Nc3ccc4[nH]ncc4c3)C2)cc1` [Compound 1.227, (S)-N-(1-benzylpiperidin-3-yl)-1H-indazol-5-amine] were 69.4%, 79.3% and 66.7%.
In the case of `Cc1ccc(CN2CCC[C@H](Nc3ccc4[nH]ncc4c3)C2)cc1O` [Compound 1.151, (S)-5-((3-(1H-indazol-5-ylamino)piperidin-1-yl)methyl)-2-methylphenol], the activity at 10 µM in data set [1] (setting [4]) is 114%.
Consider `OCCOc1cccc(CN2CCC[C@@H](Nc3ccc4[nH]ncc4c3)C2)c1` [Compound 1.092, (R)-2-(3-((3-(1H-indazol-5-ylamino)piperidin-1-yl)methyl)phenoxy)ethanol], for which, in data set [2], the Vz_F is 19.0 L/kg.
Turning to `COc1ccc(CN2CCC[C@@H](Nc3ccc4[nH]ncc4c3)C2)cc1` [Compound 1.226, (R)-N-(1-(4-methoxybenzyl)piperidin-3-yl)-1H-indazol-5-amine], the activity at 10 µM in data set [1] (setting [5]) was 99.3%; in data set [1] (setting [6]), 66.6%.
Take `Fc1ccc(CN2CCC[C@@H](Nc3ccc4[nH]ncc4c3)C2)cc1` [Compound 1.146, (R)-N-(1-(4-fluorobenzyl)piperidin-3-yl)-1H-indazol-5-amine]: the results for the activity at 10 µM in data set [1] (setting [6]) and in data set [1] (setting [4]) were 97.7% and 128%, respectively.
With `Cc1ccc(CN2CCC[C@H](Nc3ccc4[nH]ncc4c3)C2)cc1` [Compound 1.078, (S)-N-(1-(4-methylbenzyl)piperidin-3-yl)-1H-indazol-5-amine], the values for the activity at 10 µM in data set [1] (setting [5]), in data set [1] (setting [6]) and in data set [1] (setting [4]) were 60.4%, 88.1% and 111%, respectively.
For `CCc1ccc(CN2CCC[C@@H](Nc3ccc4[nH]ncc4c3)C2)cc1` [Compound 1.136, (R)-N-(1-(4-ethylbenzyl)piperidin-3-yl)-1H-indazol-5-amine], in data set [2], the Cmax entry is “BLQ”, the Tmax entry is reported as “BLQ”, the Vz_F result is “BLQ” and the t½ entry is “BLQ”. Moreover, the “AUC (0-last)” value in data set [2] is “BLQ”.
With `Brc1ccc(CN2CCC[C@H](Nc3ccc4[nH]ncc4c3)C2)cc1` [Compound 1.142, (S)-N-(1-(4-bromobenzyl)piperidin-3-yl)-1H-indazol-5-amine], the activity at 10 µM in data set [1] (setting [5]) amounted to 82.8%.
With `CSc1ccc(CN2CC[C@@H](Nc3cccc4cnccc34)C2)cc1` [Compound 2.026, (R)-N-(1-(4-(methylthio)benzyl)pyrrolidin-3-yl)isoquinolin-5-amine], in data set [2], the Cmax entry is on record as “BLQ”, the Tmax result is “BLQ”, the Vz_F entry is “BLQ” and the t½ result is recorded as “BLQ”. The “AUC (0-last)” value in data set [2] is “BLQ”. In addition, in data set [3] (10 μM, 10 ng/mL PDGF), the “Percent of PDGF Induced Proliferation at 10 μM Avg” value worked out at 52.0%. Moreover, the “Proliferation at 10 μM” value in data set [3] (average percent of PDGF stimulated proliferation at 10 μM test compound) was found to be 52.0%.
With `Clc1cccc(CN2CCC[C@H](Nc3ccc4[nH]ncc4c3)C2)c1` [Compound 1.170, (S)-N-(1-(3-chlorobenzyl)piperidin-3-yl)-1H-indazol-5-amine], the results for the activity at 10 µM in data set [1] (setting [5]), in data set [1] (setting [6]) and in data set [1] (setting [4]) were 80.6%, 67.8% and 72.7%, respectively.
In the case of `c1cc2cc(CN3CCC[C@@H](Nc4ccc5[nH]ncc5c4)C3)ccc2[nH]1` [Compound 1.143, (R)-N-(1-((1H-indol-5-yl)methyl)piperidin-3-yl)-1H-indazol-5-amine], the activity at 10 µM in data set [1] (setting [5]) turned out to be 76.8%.
On the same count and under the same terms, with `Oc1cccc(CN2CCC[C@@H](Nc3ccc4[nH]ncc4c3)C2)c1` [Compound 1.145, (R)-3-((3-(1H-indazol-5-ylamino)piperidin-1-yl)methyl)phenol] the figure was 129%.
As for `C=Cc1ccc(CN2CCC[C@H](Nc3ccc4[nH]ncc4c3)C2)cc1` [Compound 1.229, (S)-N-(1-(4-vinylbenzyl)piperidin-3-yl)-1H-indazol-5-amine], the figures for the activity at 10 µM in data set [1] (setting [5]), in data set [1] (setting [6]) and in data set [1] (setting [4]) were 44.9%, 50.7% and 63.2%, respectively.
On to `c1cc2c(cc1CN1CCC[C@@H](Nc3ccc4[nH]ncc4c3)C1)CCO2` [Compound 1.246, (R)-N-(1-((2,3-dihydrobenzofuran-5-yl)methyl)piperidin-3-yl)-1H-indazol-5-amine], for which the values for the activity at 10 µM in data set [1] (setting [5]), in data set [1] (setting [6]) and in data set [1] (setting [4]) were 103%, 79% and 108%, respectively.
`CSc1ccc(CN2CCC[C@@H](Nc3ccc4[nH]ncc4c3)C2)cc1` [Compound 1.074, (R)-N-(1-(4-(methylthio)benzyl)piperidin-3-yl)-1H-indazol-5-amine]: the activity at 10 µM in data set [1] (setting [4]) was 96%.
For the compound `c1ccc(CN2CCC[C@@H](Nc3ccc4[nH]ncc4c3)C2)cc1` [Compound 1.110, (R)-N-(1-benzylpiperidin-3-yl)-1H-indazol-5-amine], the activity at 10 µM in data set [1] (setting [5]) amounted to 134%; in data set [1] (setting [6]), 119%; in data set [1] (setting [4]), 112%.
